Results published in US10723726B2, “Solid forms of (Z)-4-(5-((3-benzyl-4-oxo-2-thioxothiazolidin-5-ylidene)methyl)furan-2-yl)benzoic acid” (GB006, INC., priority 2015, dated 2020).
“Also recorded” adds a separate entry of the source. Structures can show the parent of a compound that is named as a salt. Where two headings read alike, the source gives them in different places.

Assays:
[1] = in vivo; conditions: male, dog; for AUC0-t: AUC0-12 h
Description: The PO (2 mg/kg) dose solution of micronized LA1 was prepared in 0.1% Tween-80 0.5% (w/v) and methyl cellulose in water.
The objective of the study was to investigate the preclinical pharmacokinetic profile of LA1 (micronized powder) in Beagle dog. To delineate the plasma concentration vs. time curve and characterize the relevant pharmacokinetic parameters to generate data on the PK properties viz., bioavailability, half-life (b1/2), volume of distribution, Cmax, Tmax, AUC and elimination rate constant of LA1 in Beagle dog.
LA1 was a coarse material which was micronized using laboratory scale ball mill. […] The micronized LA1 was recovered, weighed and stored in glass container at room temperature. For intravenous drug administration, LA1 excipient compatibility assay for dosing in dogs were carried out.
In brief, a known amount of LA1 was loaded to a cylindrical capped container made of stainless steel followed by addition of stainless steel balls. The ball mills were rotated on their axis for total of 60 minutes (6 cycles X 10 minutes). The micronized LA1 was recovered, weighed and stored in glass bottle at room temperature.
Test system: Healthy Beagle dog weighing 10-12 kg (age 10 months), males were used for the study. Crossover design was adopted for the experiments wherein 02 dogs were used in the study for oral and intravenous administration. Both the animals were housed stainless steel cage provided with a hopper to hold pellet feed and a separate water hopper. Temperature and humidity was maintained at 22±3° C. and 40-70%, respectively. The illumination was controlled to give a sequence of 12 h light and 12 h dark cycle. All the animals were adapted to the experimental conditions for at least 5 days prior to dosing. All animals were provided with Pedigree™ standard pellet feed, except for 10 to 12 h before treatment and 4 h after the drug administration. Water was provided ad libidum.
Formulation and drug administration: Exactly 90 mg of the test item LA1 (micronized powder) was weighed and transferred to a mortar and briefly triturated with pestle. Small volume of vehicle [0.5% (w/v) Carboxy methyl cellulose with 0.1% Tween-80] in water was then added slowly with continuous trituration until a uniform suspension was obtained. The content was then transferred into the measuring cylinder. The mortar was rinsed till the complete transfer of test item into the measuring cylinder was ensured. The final volume was then made up to 225 mL with vehicle to get a uniform suspension with desired concentration of 0.4 mg/mL. Dosing formulations were given by oral gavage at a dose volume not exceeding 5 mL/kg.
Intravenous drug formulation: Hemolysis assay using dog whole blood was employed to assess the damage of red blood cells for selection of excipient for intravenous dosing. […] Exactly 22.5 mg of the test item (micronized powder) was weighed into a graduated tube. 2.25 mL of DMSO was added drop wise and mixed by vortex. Then, 40.50 mL of Polyethylene glycol 400 (PEG-400) was added in two to three fragments and vortex intermittently. Then 2.25 mL Ethanol was added drop wise and vortex to get clear solution. The formulation was subjected to ultra-sonication for 5 minutes.
Sample collection: Serial method was used for blood sampling. Blood samples were collected as mentioned in the study design section (7). The blood sample (−1.5 mL) was collected from saphenous vein into labeled tubes, containing 2% w/v K2EDTA solution, as an anticoagulant.

[2] = male, in vivo
Description: (§1) In a second experiment, the dose solution was prepared in Tween-80 (0.02%) and 0.5% methyl cellulose in Milli-Q water. IP (2 mg/kg) and IV (1 mg/kg) dose solutions were prepared in a 5% DMSO and 95% PEG-200.
(§2) The PO (2 mg/kg) dose solution was prepared in Tween-80 (0.02%) and 0.5% methyl cellulose in Milli-Q water. The IV (1 mg/kg) dose solution was prepared in a solution of 5% DMSO and 95% PEG-200.
(§3) The routes of administration were namely PO (gavage), IP (bolus) and IV (bolus through tail vein). A total of four SD male rats were used aged between 5-6 weeks. The feeding regimen included 12 h fasting and the feed was provided 2 hrs after the dosage inoculation and water was provided ad libidum. The blood collection schedule for PO/IP was at 0.25, 0.5, 1, 2, 4, 8, 10 and 24 h, and for IV it was at 0.12, 0.25, 0.5, 1, 2, 4, 8 and 24 h. For PO dosage, tween-80 (0.02%) and 0.5% methyl cellulose prepared in milli-Q water were used as vehicles; for IP and IV dosage 5% DMSO and 95% PEG-200 were used as vehicles.
(§4) Stock solution (178 μg/mL) in methanol was further diluted using methanol: water (80:20, v/v) to obtain working solutions in the range of 10.4 to 20745 ng/mL.
(§5) 50 μL of sample was aliquoted in to pre-labeled vials. To it was added 200 μL of 10% tetrahydrofuran containing IS (100 ng/mL; tolbutamide) and mixed well, vortexed for 5 min followed by centrifugation for 5 min at 14000 rpm for at 4° C. Supernatant was separated and 5 μL of same was injected on LC-MS/MS.
(§6) Data Analysis: Individual concentration-time data were analyzed using WinNonlin (Version 5.3) by non-compartmental analysis (NCA) method.
(§7) The routes of administration were namely PO (gavage) and IV (bolus through tail vein). A total of four SD male rats were used aged between 5-6 weeks. The feeding regimen included 12 h fasting and the feed was provided 2 hrs after the dosage inoculation and water was provided ad libitum. The blood collection schedule for PO was at 0.25, 0.5, 1, 2, 4, 8, 10 and 24 h, and for IV it was at 0.12, 0.25, 0.5, 1, 2, 4, 8 and 24 h. For PO dosage, tween-80 (0.02%) and 0.5% methyl cellulose prepared in milli-Q water were used as vehicles; for IV dosage 10% DMSO and 90% PEG-200 were used as vehicles.

[3] = in vivo; conditions: male, Sprague-Dawley, rat
Description: as §1, §2, §3, §4, §5, §6, §7

[4] = Humidity stress at 40° C./75% RH; format: physicochemical; conditions: 5-6 days
Description: The larger vials were capped, sealed with Parafilm and placed inside an oven at 40° C. for up to 6 days. Salts were then removed from these conditions and changes observed (e.g. color, deliquescence etc.) before being analyzed for weight change and by XRPD. Samples were examined visually after stressing, form composition confirmed by XRPD analysis and weight change recorded (Table 7).

[5] = Aqueous solubility by equilibration, HPLC analysis; format: physicochemical; conditions: for Appearance / Soln pH: after slurrying in water 4-5 days; for HPLC purity (%): after slurrying in water 4-5 days (chemical stability)
Description: An aliquot of the UHQ water test solvent (1 mL) was added to an accurately weighed sample of the LA1 salts and agitated at ambient temperature for a period of 4 days. A sample was withdrawn, filtered through a […], and analyzed by HPLC. HPLC was used to determine aqueous equilibrium solubility at ambient temperature. […] Samples were slurried in water for 4-5 days before analysis.

[6] = test system: murine melanoma B16-F10 tumors; assay: Murine melanoma B16F10 allograft efficacy (Example 19); format: in vivo, C57BL/6 mice; conditions: 3 or 30 mg/kg daily for 15 days
Description: TUMOR CELLS. B16-F10 cells were cultured in DMEM cell culture medium supplemented with 10% FBS and 1% penicillin-streptomycin. The cells were maintained at 37° C. in […]. When the cells reached 75-80% confluence, they were harvested by trypsinization, washed, and counted. The cells were then re-suspended in serum free medium at a concentration of 0.1 million cells/75 μl.
TUMOR CELL INOCULATION. Cells were inoculated subcutaneously on the flank of black mice. Prior to inoculation, hair was trimmed and skin on the injection site (dorsal right flank) was swabbed with alcohol. Cells in serum free medium (0.1 million cells/75 μl) were mixed with Matrigel at a ratio of 3:1 and a total volume of 100 μl was injected into each animal with a 1 mL BD syringe attached to a 26 G needle.
RANDOMIZATION. Tumors were palpable around Day 7 of inoculation.
STATISTICAL CALCULATIONS. All statistical calculations were performed using Prism 5.0 (GraphPad Software Inc., USA). Comparisons of tumor size measurements during and at the termination of the study were made between the treatment groups and respective vehicle control groups using One Way ANOVA followed by Dunnett's multiple comparison tests. A p-value of less than 0.05 was considered significant.

[7] = Histopathology (Example 19); format: in vivo, C57BL/6 mice; conditions: also seen in one animal of the control group
Description: HISTOPATHOLOGY. Histopathological examination was conducted using liver, kidney, lung, spleen, heart, and stomach samples.

[8] = beagle, iv, 0.5 mg/kg, Plasma concentration
[9] = beagle, po, 0.5 mg/kg, Plasma concentration
[10] = Sprague-Dawley, rat, iv, 1 mg/kg
[11] = Sprague-Dawley, rat, po, 2 mg/kg
[12] = Sprague-Dawley, rat, ip, 2 mg/kg

For `O=C(O)c1ccc(-c2ccc(/C=C3\SC(=S)N(Cc4ccccc4)C3=O)o2)cc1` [LA1 (micronized)], the concentration at 12 h ([1]; Beagle, iv, 0.5 mg/kg, Plasma concentration) was 7.93 ng/mL, the bioavailability ([1]; beagle, Absolute oral bioavailability) was 50.6% and the clearance ([1]; beagle, Dog Cl (ml/min/kg)) was 2.1 mL/min/kg. For the same compound, the bioavailability ([1]; beagle, Dog F % (absolute oral bioavailability)) was 50%, the AUC0-t ([1]; beagle, iv, 0.5 mg/kg) was 1330 ng·h/mL and the AUC(0-inf) ([1]; beagle, iv, 0.5 mg/kg, AUC0-inf) was 1350 ng·h/mL. It also gave an AUC(0-inf) ([1]; beagle, iv, 0.5 mg/kg, AUCinf) of 1350 ng·h/mL, a C0 ([1]; beagle, iv, 0.5 mg/kg, C0) of 1330 ng/mL and a Cmax ([1]; beagle, iv, 0.5 mg/kg, Co/Cmax) of 2040 ng/mL. For the same compound, the concentration at 0.05 h [1, 8] was 1570 ng/mL, the concentration at 0.1 h [1, 8] was 897 ng/mL and the concentration at 0.25 h [1, 8] was 717 ng/mL. It also gave a concentration at 0.5 h [1, 8] of 505 ng/mL, a concentration at 1 h [1, 8] of 405 ng/mL and a bioavailability ([1]; beagle, po, 0.5 mg/kg, Absolute Bioavailability F %) of 50.6%. For the same compound, the concentration at 4 h [1, 9] was 660 ng/mL, the concentration at 6 h [1, 9] was 211 ng/mL and the concentration at 8 h [1, 9] was 118 ng/mL. For the same compound, the concentration at 12 h [1, 9] was 37.5 ng/mL, the AUC(0-inf) ([1]; beagle, po, 2 mg/kg, AUCinf) was 2690 ng·h/mL and the Cmax ([1]; beagle, po, 2 mg/kg, Cmax) was 685 ng/mL. The half-life ([1]; beagle, po, 2 mg/kg) was 2.11 h, the Tmax ([1]; beagle, po, 3 mg/kg) was 4 h and the AUC0-t ([1]; beagle, po, 3 mg/kg) was 2570 ng·h/mL. It also gave an AUC(0-inf) ([1]; beagle, po, 3 mg/kg, AUC0-inf) of 2690 ng·h/mL, a Cmax ([1]; beagle, po, 3 mg/kg, Co/Cmax) of 685 ng/mL and a half-life ([1]; beagle, po, 3 mg/kg) of 2.11 h. The “Rat Cl” value ([2]; Sprague-Dawley) was 23.4 mL/min/kg, the “Vss” value ([2]; Sprague-Dawley, rat) was 2.14 L/kg and the AUC0-t [2, 10] was 715 ng·h/mL. For the same compound, the “AUC0-∞” value [2, 10] was 729 ng·h/mL, the C0 [2, 10] was 1025 ng/mL and the MRT [2, 10] was 1.47 h. It also gave a Tlast [2, 10] of 12.0 h, a Vd [2, 10] of 2.63 L/kg and an AUC0-t [2, 11] of 319 ng·h/mL. For the same compound, the “AUC0-∞” value [2, 11] was 336 ng·h/mL, the Tlast [2, 11] was 6.50 h and the Tmax [2, 11] was 0.88 h. The AUC ([3]; po, 2 mg/kg, AUC (with PO bioavailability)) was 0.76 µM·h, the AUC ([3]; po, 2 mg/kg, AUC in mM*hr) was 0.76 µM·h and the MRT ([3]; po, 2 mg/kg, MRT (hr)) was 2.04 h. It also gave a bioavailability ([3]; po, 2 mg/kg, Rat F %) of 23% and a half-life ([3]; po, 2 mg/kg, t1/2 (hr)) of 1.1 h.
With `O=C(O)c1ccc(-c2ccc(/C=C3\SC(=S)N(Cc4ccccc4)C3=O)o2)cc1` [LA1 meglumine salt] the “Weight gain (%)” value [4] was 1.4%, the XRPD after stressing [4] was “No change” and the solubility ([5]; UHQ water, thermodynamic from solid, water, ambient temperature, slurried 4-5 days, corrected for weight of counter-ion, read-out: Aq solub) was 724 µg/mL. The Appearance [5] was “No change”, the “Soln pH” value [5] was 8 and the “HPLC purity (%)” value [5] was 34.7%. For the same compound, the “growth inhibition of B16-F10 tumors as compared to vehicle control” value [6] was 58-66%, the “microscopic examination of liver tissues” value [7] was “minimal to moderate hepatocellular necrosis in one animal” and the “tumor metastasis in lung tissue” value [7] was “Tumor metastasis was observed in lung tissue from one animal”. The “Rat Cl” value ([2]; Sprague Dawley, iv, 1 mg/kg) was 17.5 mL/min/kg, the “Vss” value ([2]; Sprague Dawley, rat) was 0.74 L/kg and the “Rat Cl” value ([2]; Sprague-Dawley) was 18 mL/min/kg. The “Rat F %” value ([2]; Sprague-Dawley, ip, 2 mg/kg) was 167%, the “Rat Cl” value ([2]; Sprague-Dawley, iv, 1 mg/kg) was 17.5 mL/min/kg and the “Rat F %” value ([2]; Sprague-Dawley, po, 2 mg/kg) was 37.1%. For the same compound, the “% F (absolute IP bioavailability)” value ([2]; Sprague-Dawley, rat) was greater than 100%, the “F (absolute oral bioavailability)” value ([2]; Sprague-Dawley, rat) was 37.1% and the “Vss” value ([2]; Sprague-Dawley, rat) was 0.74 L/kg. For the same compound, the AUC0-t [2, 12] was 3252 ng·h/mL, the “AUC0-∞” value [2, 12] was 3270 ng·h/mL and the Tlast [2, 12] was 17.0 h. For the same compound, the Tmax [2, 12] was 0.25 h, the AUC0-t [2, 10] was 967 ng·h/mL and the “AUC0-∞” value [2, 10] was 978 ng·h/mL. It also gave a C0 [2, 10] of 2142 ng/mL, an MRT [2, 10] of 0.91 h and a Tlast [2, 10] of 8.00 h. For the same compound, the Vd [2, 10] was 1.85 L/kg, the AUC0-t [2, 11] was 722 ng·h/mL and the “AUC0-∞” value [2, 11] was 726 ng·h/mL. It also gave a Tlast [2, 11] of 10.0 h, a bioavailability ([3]; F (absolute oral bioavailability)) of 37% and an MRT ([3]; po, 2 mg/kg, MRT) of 1.54 h. It also gave a half-life ([3]; po, 2 mg/kg, t1/2,ß) of 1.6 h and a Tmax ([3]; po, 2 mg/kg, tmax) of 0.5 h.
In the case of `[Ca]` [calcium], the “Weight gain (%)” value [4] was 1.7%, the XRPD after stressing [4] was “More disordered” and the Appearance [5] was “No change”. The “Soln pH” value [5] was 7 and the “HPLC purity (%)” value [5] was 5.58%.
For `C1CNCCN1` [piperazine], the “Weight gain (%)” value [4] was −5.5%, the XRPD after stressing [4] was “phase change; also recorded: New pattern (R)” and the Appearance [5] was “No change”. The “Soln pH” value [5] was 8 and the “HPLC purity (%)” value [5] was 5.31%.
In the case of `NC(CO)(CO)CO` [tromethamine], the XRPD after stressing [4] was “phase change; also recorded: New pattern (S)”, the Appearance [5] was “Yellow ppt seen” and the “Soln pH” value [5] was 8. The “HPLC purity (%)” value [5] was 89.7% and the “physical stability in water” value ([5]; slurrying 4-5 days, XRPD) was “not physically stable in water”.
